Assay results taken from patent US20230041138A1, “TREATMENT OF HIS HYPORESPONDERS” (NewAmsterdam Pharma B.V. (Dutch Registration No. 55971946), priority 2021, published 2023).

Experiment: Phase 2 study of obicetrapib as adjunct to high-intensity statin therapy: safety and tolerability (adverse events)
Type: in vivo, human
Conditions: for AEs, total: subjects, number (%): on top of high-intensity statin; for Subjects reporting treatment-emergent adverse events: safety population
Protocol: Patients were randomly assigned to receive one of the three treatments investigative treatments. All treatments were to be taken once daily with food for 8 weeks. Safety was assessed throughout the trial by monitoring adverse events and concomitant medication use, 12-lead electrocardiograms (ECGs), vital signs, laboratory safety assessments and physical examinations. Additional assessments included salivary cortisol, plasma aldosterone, high-sensitivity C-reactive protein (hsCRP) and endothelin 1.
Safety and tolerability profiles of obicetrapib assessed by clinical laboratory values and incidence of adverse events (AEs).
The primary outcome measure was LDL-C (percent change). Secondary outcome measures included ApoB, Non-HDL-C and HDL-C (percent change). The Intent-to-Treat (ITT) Population included all participants randomized into the study. The Modified ITT (mITT) Population included all participants in the ITT Population who receive at least 1 dose of any study drug and have a baseline value for the LDL-C assessment. The Safety Population included all participants who receive at least 1 dose of any study drug. The mITT Population was the primary population for the efficacy analyses. The primary efficacy analysis of the percent change in LDL-C was performed using a mixed model for repeated measures (MMRM) approach. In order to maintain the overall Type I error rate, the secondary efficacy endpoints were tested sequentially at the 0.05 significance level according to the pre-specified order of hierarchy. All safety endpoints were summarized descriptively. No statistical inference was applied to the safety endpoints. Plasma obicetrapib concentrations were summarized with descriptive statistics based on the […].

[1] = either obicetrapib treatment group (5 mg, 10 mg)

## CCOC(=O)N1c2ccc(C(F)(F)F)cc2[C@@H](N(Cc2cc(C(F)(F)F)cc(C(F)(F)F)c2)c2ncc(OCCCC(=O)O)cn2)C[C@H]1CC [Obicetrapib, (2R,4S)-4-{[3,5-bis(trifluoromethyl)benzyl]-[5-(3-carboxypropoxy)pyrimidin-2-yl]amino}-2-ethyl-6-trifluoromethyl-3,4-dihydro-2H-quinoline-1-carboxylic acid ethyl ester]
5 mg and 10 mg on top of high intensity statin therapy
  Tolerability and safety profile: well tolerated with a safety profile similar to placebo
5 mg group
  Subjects reporting events considered study drug related: 2 subjects
  Subjects reporting treatment-emergent adverse events: 15 subjects
5 mg group (N = 40)
  AEs, related: number of events: 2 events
  AEs, related: subjects, number (%): 2 (5.0)
  AEs, severe: 0
  AEs, total: number of events: 24 events
  Deaths: 0
  SAEs, related: 0
  SAEs, total: 0
  TEAEs leading to discontinuation of study drug: 0
  TESAEs leading to discontinuation of study: 0
  AEs, total: subjects, number (%): 13 (32.5)
5 mg group (n = 40)
  Adverse events: Basal cell carcinoma: 0 (0.0) n (%)
  Adverse events: Fatigue: 2 (5.0) n (%)
  Adverse events: Gastrointestinal disorders: 3 (7.5) n (%)
  Adverse events: General disorders and administration site conditions: 3 (7.5) n (%)
  Adverse events: Hypertension: 2 (5.0) n (%)
  Adverse events: Infections and infestations: 1 (2.5) n (%)
  Adverse events: Injury, poisoning and procedural complications: 3 (7.5) n (%)
  Adverse events: Investigations: 2 (5.0) n (%)
  Adverse events: Metabolism and nutrition disorders: 2 (5.0) n (%)
  Adverse events: Muscle spasms: 0 (0.0) n (%)
  Adverse events: Musculoskeletal and connective tissue disorders: 4 (10.0) n (%)
  Adverse events: Nausea: 1 (2.5) n (%)
  Adverse events: Neoplasms benign, malignant and unspecified (including cysts and polyps): 0 (0.0) n (%)
  Adverse events: Nervous system disorders: 2 (5.0) n (%)
  Adverse events: Respiratory, thoracic and mediastinal disorders: 2 (5.0) n (%)
  Adverse events: Type 2 diabetes mellitus: 2 (5.0) n (%)
  Adverse events: Vascular disorders: 2 (5.0) n (%)
10 mg group
  Subjects reporting events considered study drug related: 1 subject
  Subjects reporting treatment-emergent adverse events: 8 subjects
10 mg group (N = 40)
  AEs, related: number of events: 1 events
  AEs, related: subjects, number (%): 1 (2.5)
  AEs, severe: 0
  AEs, total: number of events: 11 events
  Deaths: 0
  SAEs, related: 0
  SAEs, total: 0
  TEAEs leading to discontinuation of study drug: 0
  TESAEs leading to discontinuation of study: 0
  AEs, total: subjects, number (%): 8 (20.0)
10 mg group (n = 40)
  Adverse events: Basal cell carcinoma: 0 (0.0) n (%)
  Adverse events: Fatigue: 1 (2.5) n (%)
  Adverse events: Gastrointestinal disorders: 0 (0.0) n (%)
  Adverse events: General disorders and administration site conditions: 2 (5.0) n (%)
  Adverse events: Hypertension: 0 (0.0) n (%)
  Adverse events: Infections and infestations: 0 (0.0) n (%)
  Adverse events: Injury, poisoning and procedural complications: 1 (2.5) n (%)
  Adverse events: Investigations: 0 (0.0) n (%)
  Adverse events: Metabolism and nutrition disorders: 0 (0.0) n (%)
  Adverse events: Muscle spasms: 0 (0.0) n (%)
  Adverse events: Musculoskeletal and connective tissue disorders: 4 (10.0) n (%)
  Adverse events: Nausea: 0 (0.0) n (%)
  Adverse events: Neoplasms benign, malignant and unspecified (including cysts and polyps): 0 (0.0) n (%)
  Adverse events: Nervous system disorders: 2 (5.0) n (%)
  Adverse events: Respiratory, thoracic and mediastinal disorders: 0 (0.0) n (%)
  Adverse events: Type 2 diabetes mellitus: 0 (0.0) n (%)
  Adverse events: Vascular disorders: 0 (0.0) n (%)
[1]
  Laboratory parameters (chemistry, hematology, urinalysis) compared with placebo: no clinically meaningful shifts in chemistry, hematology or urinalysis parameters
  Vital signs compared with placebo: no changes in vital signs
